Read-outs that look alike come from different tables or passages of the source. A value given as a limit tells only on which side of the number the result lay.

The subject of assay [1] is Delayed-Type Hypersensitivity (DTH) to sheep red blood cells (SRBC). Description: Suppression of delayed-type hypersensitivity (SRBC footpad swelling). The format is in vivo, mouse. As to conditions: for inhibition in vivo at 1 mg: Erythrocyte. The protocol:
The compounds of Formula (I) show suppression of various delayed-type hypersensitivity. In reference to the method by Lagrange [J. Exp. Med. 139, 528 (1974)], 10^8 sheep red blood cells (SRBC) without adjuvant were subcutaneously injected into the mouse hind footpad to immunize the animal. Four days later the animals were challenged by subcutaneous injection of 10^8 SRBC into another footpad. DTH response was measured as the increase in the thickness of footpad 24 hours after the injection of SRBC.
Varying doses of Compound-1 were administered orally or intraperitoneally either at the time of immunization (day 0) or challenge (day 4).
In FIG. 1 the ordinate indicates the swelling (× 0.1 mm.) of mice footpads on day 5 and the abscissa indicates the dose of Compound-1 per mouse administered by the oral (right) and intraperitoneal (left) routes. Solid line curve indicates the relationship when Compound-1 was administered on day 0 and the dotted line curve indicates the relationship when given on day 4.
The compounds were administered intraperitoneally in a dose 1 mg./mouse at the time of immunization (day 0) or challenge (day 4). Table 1 includes the results of humoral antibody response described later.

For assay [2], the system named is primary antibody formation to sheep red blood cells (SRBC), spleen cells. Description: Suppression of primary antibody formation (plaque forming cells, Jerne's method). The format is in vivo, mice (ddY-strain). As to conditions: for inhibition in vivo at 1 mg: Erythrocyte, ip, 96 h, read-out: Suppression, Plaque Forming Cells (suppression rate of primary antibody formation).
Procedure: 10^8 sheep red blood cells (SRBC) were injected intravenously into ddY-strain mice to immunize the animals, when the compounds of Formula (I) were administered intraperitoneally.
Each compound was administered intraperitoneally in the dosage of 1 mg./mouse.

Setting [3] is: 96 h, 1 mg./mouse i.p., at challenge (day 4), read-out: Suppression, Delayed-Type Hypersensitivity, Administered at Induction (suppression rate).
Setting [4] is: ip, 0 h, 1 mg./mouse i.p., at immunization (day 0), read-out: Suppression, Delayed-Type Hypersensitivity, Administered at Immunization (suppression rate).

For the molecule `COc1c(Cl)cc(NC(=O)c2ccccc2O)cc1Cl` [Compound 3], the inhibition in vivo at 1 mg in assay [1] (setting [3]) was > 75%; in assay [1] (setting [4]), 0 to 25%; in assay [2] (1 mg./mouse i.p.), 50 to 75%.
Turning to `CCC(=O)Oc1ccccc1C(=O)Nc1cc(Cl)c(OC(=O)CC)c(Cl)c1` [Compound 5], the inhibition in vivo at 1 mg was > 75% in assay [1] (setting [3]), 0 to 25% in assay [1] (setting [4]) and 50 to 75% in assay [2] (1 mg./mouse i.p.).
In the case of `CC(=O)Oc1ccccc1C(=O)Nc1cc(Cl)c(O)c(Cl)c1` [Compound 8], the inhibition in vivo at 1 mg is 0 to 25% in assay [1] (setting [3]), 0 to 25% in assay [1] (setting [4]) and 25 to 50% in assay [2] (1 mg./mouse i.p.).
Turning to `O=C(O)COc1c(Cl)cc(NC(=O)c2ccccc2O)cc1Cl` [Compound 9], the inhibition in vivo at 1 mg in assay [1] (setting [3]) is > 75%; in assay [1] (setting [4]), 0 to 25%; in assay [2] (1 mg./mouse i.p.) it was 0 to 25%.
With `O=C(Nc1cc(Cl)c(O)c(Cl)c1)c1ccc(F)cc1O` [Compound 10], the inhibition in vivo at 1 mg in assay [1] (setting [3]) is > 75%; in assay [1] (setting [4]) it was 0 to 25%; in assay [2] (1 mg./mouse i.p.), 25 to 50%.
In the case of `Cc1ccc(C(=O)Nc2cc(Cl)c(O)c(Cl)c2)c(O)c1` [Compound 11], the inhibition in vivo at 1 mg in assay [1] (setting [3]) was 0 to 25%; in assay [1] (setting [4]), > 75%; in assay [2] (1 mg./mouse i.p.) it was 25 to 50%.
Consider `CCOc1c(Br)cc(NC(=O)c2ccccc2O)cc1Br` [Compound 14], for which the figures for the inhibition in vivo at 1 mg in assay [1] (setting [3]), in assay [1] (setting [4]) and in assay [2] (1 mg./mouse i.p.) were > 75%, 50 to 75% and 0 to 25%, respectively.
On to `Cc1ccc(C(=O)Nc2cc(Br)c(O)c(Br)c2)c(O)c1` [Compound 16], for which the inhibition in vivo at 1 mg was > 75% in assay [1] (setting [3]), 50 to 75% in assay [1] (setting [4]) and 0 to 25% in assay [2] (1 mg./mouse i.p.).
As to `O=C(Nc1cc(F)c(O)c(Cl)c1)c1ccccc1O` [Compound 17], the inhibition in vivo at 1 mg in assay [1] (setting [3]) is > 75%; in assay [1] (setting [4]), 0 to 25%; in assay [2] (1 mg./mouse i.p.), > 75%.
Regarding `COc1c(F)cc(NC(=O)c2ccc(Cl)cc2O)cc1Cl` [Compound 18], the inhibition in vivo at 1 mg in assay [1] (setting [3]) was > 75%; in assay [1] (setting [4]) it was 0 to 25%; in assay [2] (1 mg./mouse i.p.), 25 to 50%.
For `Cc1cc(Cl)c(O)c(NC(=O)c2ccccc2O)c1` [Compound 20] the same measures were > 75%, 0 to 25% and 50 to 75%.
With `O=C(Nc1cc([N+](=O)[O-])cc([N+](=O)[O-])c1O)c1ccccc1O` [Compound 21], the inhibition in vivo at 1 mg in assay [1] (Mus musculus, 96 h, read-out: Suppression, Delayed-Type Hypersensitivity, Administered at Induction (suppression rate)) is > 75%; in assay [1] (Mus musculus, ip, 0 h, read-out: Suppression, Delayed-Type Hypersensitivity, Administered at Immunization (suppression rate)), 50 to 75%; in assay [2] (Mus musculus) it was 0 to 25%.
`O=C(Nc1ccc(O)c(Cl)c1)c1ccccc1O` [Compound 22]: the inhibition in vivo at 1 mg in assay [1] (setting [3]) was 0 to 25%; in assay [1] (setting [4]) it was 0 to 25%; in assay [2] (1 mg./mouse i.p.) it was > 75%.
In the case of `CCOc1ccc(NC(=O)c2ccc(F)cc2O)cc1Cl` [Compound 24], the inhibition in vivo at 1 mg in assay [1] (setting [3]) was in the range of 50 to 75%; in assay [1] (setting [4]) it was 0 to 25%; in assay [2] (1 mg./mouse i.p.) it was 25 to 50%.
In the case of `O=C(Nc1ccc(O)cc1)c1ccccc1O` [Compound 26], the inhibition in vivo at 1 mg in assay [1] (setting [3]) is 50 to 75%; in assay [1] (setting [4]) it was 0 to 25%; in assay [2] (1 mg./mouse i.p.), 50 to 75%.
Consider `CCOc1ccc(NC(=O)c2ccc(F)cc2O)cc1` [Compound 31], for which the inhibition in vivo at 1 mg in assay [1] (setting [3]) was > 75%; in assay [1] (setting [4]), 0 to 25%; in assay [2] (1 mg./mouse i.p.), 50 to 75%.
For `COc1ccc(NC(=O)c2ccc(C)cc2OC(C)=O)cc1` [Compound 32], the “Suppression, Delayed-Type Hypersensitivity, Administered at Induction (suppression rate)” value in assay [1] (1 mg./mouse i.p., at challenge (day 4)) was “+ (25 - 50%+-)”. The “Suppression, Delayed-Type Hypersensitivity, Administered at Immunization (suppression rate)” value in assay [1] (1 mg./mouse i.p., at immunization (day 0)) is “- (0 - 25% +-)”. In addition, the “Suppression, Plaque Forming Cells (suppression rate of primary antibody formation)” value in assay [2] (1 mg./mouse i.p.) is listed as “- (0 - 25% +-)”.
Take `CC(=O)Oc1ccccc1C(=O)Nc1cc(Cl)c(OC(C)=O)c(Cl)c1` [Compound-4, 2,4'-Diacetoxy-3',5'-dichlorobenzanilide]: the values for the inhibition in vivo at 1 mg in assay [1] (setting [3]), in assay [1] (setting [4]) and in assay [2] (1 mg./mouse i.p.) were > 75%, 0 to 25% and 50 to 75%, respectively.
